Article PMC10675073, “Effect of Phenolics from Aeonium arboreum on Alpha Glucosidase, Pancreatic Lipase, and Oxidative Stress; a Bio-Guided Approach” (Pharmaceutics, 2023)

Columns and labels:
[1] = target: T1, Saccharomyces cerevisiae α-glucosidase (Saccharomyces cerevisiae, UniProt P53341); test: α-glucosidase enzyme inhibition (pNPG, colorimetric); assay type: biochemical; details: pure compounds, read-out: IC50 (Mean ± SE)
T1 construct: purchased Sigma-Aldrich G5003-100UN
Protocol: Saccharomyces cerevisiae’s α-glucosidase was utilized (Sigma-Aldrich, St. Louis, MO, USA Cat#G5003-100UN). […] Seven concentrations, comprising 31.25, 62.5, 125, 250, 500, 750, and 1000 µM, were prepared from the buffer. […] Using p-nitrophenyl-D-glucopyranoside (pNPG) as a substrate, the inhibitory activity of α-Glucosidase was evaluated colorimetrically by applying the technique described by Gutiérrez-Grijalva et al. with minor modification. In 96-microwell plates, 25 μL of samples/blank were combined with 50 μL of S. cerevisiae α-glucosidase (0.6 U/mL) in phosphate buffer (0.1 M, pH 7) for 10 min at 37 °C. The mixture was then incubated once again for 5 min at 37 °C after the addition of 25 μL of 3 mM pNPG as a substrate in phosphate buffer (pH 7). Utilizing a microplate reader (Tecan, Männedorf, Switzerland) to measure the release of p-nitrophenol from the pNPG substrate at 405 nm, enzyme activity was ascertained [23]. After determining the absorbance (A), the inhibition % of -glucosidase was determined using the formula:% Inhibition = [(A blank − A sample)/A blank] × 100

[2] = target: T2, porcine pancreatic lipase (PPL) (Sus scrofa, UniProt P00591); test: Pancreatic lipase enzyme inhibition (p-NPD); assay type: biochemical
T2 sequence (P00591 1-450): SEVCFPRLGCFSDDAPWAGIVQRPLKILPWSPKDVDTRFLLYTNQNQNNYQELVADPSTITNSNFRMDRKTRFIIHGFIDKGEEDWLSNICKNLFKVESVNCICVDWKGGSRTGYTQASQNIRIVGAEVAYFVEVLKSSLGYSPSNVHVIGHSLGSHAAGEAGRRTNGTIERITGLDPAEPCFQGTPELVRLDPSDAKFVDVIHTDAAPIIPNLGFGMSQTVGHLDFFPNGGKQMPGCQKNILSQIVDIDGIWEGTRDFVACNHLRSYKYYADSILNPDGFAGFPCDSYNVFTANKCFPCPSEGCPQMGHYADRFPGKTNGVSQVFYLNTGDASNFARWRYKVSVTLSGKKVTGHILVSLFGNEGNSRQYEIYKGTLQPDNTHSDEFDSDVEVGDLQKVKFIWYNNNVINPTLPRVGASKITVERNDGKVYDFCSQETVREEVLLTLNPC
Protocol: P-nitrophenyl dodecanoate (p-NPD from Sigma Aldrich, St. Louis, MO, USA) was used as the substrate, and porcine pancreatic lipase (PPL) was prepared as previously stated by with minor modification. In sum, 25 μL of prepared samples along with a blank were first incubated with 50 µL of PPL (1 mg/mL) in a Tris-HCl buffer (100 mM, pH 8) for 10 min prior to detecting the PPL activity. Following the addition of […] of p-NPD (10 mM in isopropanol), the reaction was then incubated again at 37 °C for 20 min. using […] of Tris-HCl buffer as a volume diluent.

ABTS assay = details: for % inhibition: standard curve (Figure S11)
Protocol: In brief, the production of the ABTS radical cation (ABTS•+) involved mixing 5 mL of ABTS aqueous solution (7 mM) with […] of potassium persulfate (140 mM) while the mixture was left at room temperature for 16 h in the dark. […] The absorbance was then measured at 690 nm using a microplate reader (Tecan, USA). According to the following equation, data are shown as means (n = 3) SD:% Inhibition = [(A blank - A sample)/A blank] × 100 Using the linear regression method, the antioxidant effect of the various samples was determined as μM ascorbic acid equivalent.

[3] = Ferric reducing antioxidant power (FRAP) assay
Protocol: The samples were made in a mixture of methanol: DMSO (10:1) at a concentration of 2 mg/mL, while quercetin rhamnoside was made at a concentration of 0.9 mM. To produce the concentration–response curve, seven concentrations, including 7.812, 15.625, 31.25, 62.5, 125, 250, and 500 µM, were created from a stock solution of 1000 µM concentration of ascorbic acid, the positive control. According to the procedure of Benzie et al., this assay was conducted with minor modifications. It depends on Fe^3+ reduction into Fe^2+ which forms a colored complex with 2,4,6-tris (2-pyridyl)-s-[…] (TPTZ). In brief, in a 96-well plate (n = 3), […] of the sample was combined with […] of freshly made TPTZ reagent (300 mM acetate buffer (pH = 3.6), 10 mM TPTZ in 40 mM HCl, and 20 mM FeCl3, in that order; respectively). The reaction was then allowed to run at room temperature for 30 min while kept in a dark place, and the absorbance was measured at 593 nm. Data are shown as means ± SD [26]. […]

[4] = Oxygen radical absorbance capacity (ORAC) assay; details: Table S6; per mM compound
Protocol: Trolox (positive control) was prepared at 2 mM in MeOH then serially diluted into ten concentrations 1000, 800, 700, 600, 500, 400, 300, 200, 100, and 50 μM for the concentration–response curve construction. The total extract and DCM fractions were made at 0.2 mg/mL in methanol, 100% and 50% were prepared at 0.05 mg/mL in methanol, while quercetin rhamnoside was prepared at a concentration of 0.225 mM in methanol. The assay was carried out using Liang et al.’s (2014) methodology, with minor modifications. In brief, 10 μL of the prepared samples were allowed to sit at 37 °C for 10 min with […] of fluoresceine (100 nM). For the background measurement, fluorescence measurements (485 EX, 520 EM, nm) were carried out three times for a total of 90 s each (range 1, Figure 1). Then, 70 μL of freshly made 2,2′-Azobis (2-amidinopropane) dihydrochloride (AAPH) (300 mM) was added to each well. For 60 min (40 cycles, each lasting 90 sec), the measurement of fluorescence (485 EX, 520 EM, nm) was maintained. The antioxidant impact of the samples was determined as the μM Trolox equivalent using the linear regression equation, and the data are shown as means (n = 3) SD.

[5] = Metal chelation assay (Ferrozine)
Protocol: Except for quercetin rhamnoside, all the samples were prepared at a concentration of 0.2 mg/mL in methanol. A stock solution of EDTA (positive control) was made at a concentration of 0.1 mM in water and serially diluted into seven concentrations (80, 70, 60, 50, 40, 20, and 10 μM) for the purpose of creating a concentration–response curve. The method described in [28] was used for the Ferrozine iron metal chelation test, with a few minor adjustments made for microplates. In brief, 50 μL of the sample or substance on a 96-well plate and 50 μL of acetate buffer pH = 6 (n = 6) were combined with 20 μL of newly produced ferrous sulphate (0.3 mM in acetate buffer pH = 6). Then, each well received 30 μL of Ferrozine (0.8 mM in acetate buffer, pH = 6). For 10 min, the reaction mixture was incubated at room temperature. At the completion of the incubation period, the FluoStar Omega microplate reader was used to measure the reduction in the intensity of the produced color. The following equation describes how data are expressed as means ± SD:% Inhibition = [(Average Absorbance of blank − Average Absorbance of Test)/Average Absorbance of blank] × 100
The samples’ antioxidant potential was calculated as μM EDTA equivalents using the linear regression equation.

T1 sequence (P53341 whole entry): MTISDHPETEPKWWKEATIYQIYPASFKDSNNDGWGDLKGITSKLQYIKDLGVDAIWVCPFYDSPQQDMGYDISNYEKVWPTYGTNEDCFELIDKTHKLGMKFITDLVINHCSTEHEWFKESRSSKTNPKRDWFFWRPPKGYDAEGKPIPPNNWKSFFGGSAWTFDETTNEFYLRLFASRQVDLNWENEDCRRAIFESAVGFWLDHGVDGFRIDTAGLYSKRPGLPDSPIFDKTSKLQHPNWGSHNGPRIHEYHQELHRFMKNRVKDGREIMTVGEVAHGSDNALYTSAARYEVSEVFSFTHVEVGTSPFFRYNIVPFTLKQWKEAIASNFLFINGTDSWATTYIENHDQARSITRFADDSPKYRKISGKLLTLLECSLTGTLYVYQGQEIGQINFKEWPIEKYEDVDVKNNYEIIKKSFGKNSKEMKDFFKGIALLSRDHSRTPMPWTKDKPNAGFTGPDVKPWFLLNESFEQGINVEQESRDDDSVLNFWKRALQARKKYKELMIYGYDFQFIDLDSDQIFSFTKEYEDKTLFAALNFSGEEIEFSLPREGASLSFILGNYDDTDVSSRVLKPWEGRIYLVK

SMILES	IC50 [1]	inhibition at 500 µM ([2]; 500 µM, read-out: % Inhibition (Mean ± SD))	IC50 ([2]; pure compounds, read-out: IC50 (µM) (Mean ± SE))	ABTS antioxidant activity, ascorbic acid equivalent (ABTS assay; per mM compound)	Trolox equivalent per mM sample ([3]; Table S5, FRAP)	FRAP antioxidant activity, Trolox equivalent ([3]; per mM compound)	Antioxidant activity using ORAC assay [4]	EDTA equivalent per mM sample ([5]; Table S7)	Metal chelation activity, EDTA equivalent ([5]; per mM compound)	% inhibition (ABTS assay; 7.8125 µM)	% inhibition (ABTS assay; 15.625 µM)	% inhibition (ABTS assay; 31.25 µM)	% inhibition (ABTS assay; 62.5 µM)	% inhibition (ABTS assay; 125 µM)	% inhibition (ABTS assay; 250 µM)	% inhibition (ABTS assay; 500 µM)
CC1OC(Oc2c(-c3ccc(O)c(O)c3)oc3cc(O)cc(O)c3c2=O)C(O)C(O)C1O (stereo not drawn) [Quercetin-3-rhamnoside, quercetin-3-O-α-rhamnoside]	126.4 ± 1.04 µM	19.1 ± 0.34%	> 500 µM	1338.1 ± 81.38 μM AAE/mM	1681.23 µM TE/mM sample	1681.2 ± 49.9 μmolar TE/mM	25258.39 µMT eq/mM	377.98 µM eq/ mM sample	377.98 ± 10.17 μmolar EDTAE/mM	–	–	–	–	–	–	–
O=C1O[C@H]([C@@H](O)CO)C(O)=C1O [ascorbic acid]	–	–	–	–	–	–	–	–	–	2.8930%	3.7803%	5.5156%	9.7291%	16.88%	33.5451%	62.86%
